From patent US5147876A, “2,6-di,2,4,6-, 2,5,6-tri and 2,4,5,6-tetra-substituted pyrimidines, their pharmaceutically acceptable salts, pharmaceutical compositions containing same and their use in the treatment of neurological diseases” (Mitsui Petrochemical Industries, Ltd., priority 1988, dated 1992)
Structures can show the parent of a compound that is named as a salt.

Tests used:
[1] = test system: neuro-2a (mouse neuroblastoma cells); experiment: Action on neuro-2a: proportion of cells containing outgrown neurites; format: cell-based; settings: mean ± S.D.
Procedure: (§1) The effects of the compounds of this invention on neuroblastoma cells were examined by the following method.
(§2) Mouse neuro 2a cells in the logarithmic growth period in the Dulbecco's modified Eagle's medium DMEM, containing 100 units/ml of penicillin G sodium and 100 micrograms/ml of streptomycin sulfate]containing 10 % of FCS were seeded in a 48-well plate so that the number of cells was 1,000 cells/well, and cultured for one day in 0.25 ml of the culture fluid in each well in an incubator containing 5 % of carbon dioxide gas in air at 37° C. Then, a 4 % aqueous glutaraldehyde solution in the same amount as a medium (0.25 ml) was added, and the culture fluid was left to stand at room temperature for 2 hours to fix the cells. After washing with water, a 0.05 % aqueous solution of methylene blue was added to stain the cells Under a microscope, the number of cells containing outgrown neurites (cells having at least one neurite with a length of at least two times as large as the long diameter of the cell) was counted visually, and the proportion of these cells in the entire cells was calculated. The well was observed over 5 or more visual fields (at least 2 % of the entire surface area of the well) continuous to the left and right from a mark put at the center of the well, and more than 200 cells was counted. One drug compound was used in 6 different concentrations at most, and three runs were conducted for each concentrations.

[2] = test system: NS-20Y (mouse neuroblastoma cells); experiment: Activity on NS-20Y cells: appearance of neurites; format: cell-based
Procedure: as §1, §2
Mouse neuroblastoma cells NS-20Y were similarly cultured in a dish coated with polyornithine, and the effects of the compounds were examined.

SMILES: Cc1ccc(S(=O)(=O)O)cc1.Cc1ccccc1C(=O)N(C)c1ccnc(N2CCC(c3ccccc3)CC2)n1 [Compound 171-7]
- Number of cells having neurites with a length at least two times the diameter of each cell/total number of cells ([1]; 0.03 mM): 8.5 ± 1.0%
- Number of cells having neurites with a length at least two times the diameter of each cell/total number of cells ([1]; 0.1 mM): 6.7 ± 3.1%
- Number of cells in which neurites appeared/total number of cells ([2]; 24 hours, 0.1 mM): 4/50
- Number of cells in which neurites appeared/total number of cells ([2]; 48 hours, 0.1 mM): 2/50

SMILES: CN(C)CCN(C(=O)c1ccccc1)c1ccnc(N2CCC(c3ccccc3)CC2)n1 [Compound 200]
- Number of cells having neurites with a length at least two times the diameter of each cell/total number of cells ([1]; 0.01 mM): 4.2 ± 1.6%
- Number of cells having neurites with a length at least two times the diameter of each cell/total number of cells ([1]; 0.03 mM): 7.6 ± 1.6%
- Number of cells in which neurites appeared/total number of cells ([2]; 24 hours, 0.02 mM): 4/50
- Number of cells in which neurites appeared/total number of cells ([2]; 48 hours, 0.02 mM): 2/50

SMILES: CN(C(=O)C(C)(C)C)c1ccnc(N2CCC(c3ccccc3)CC2)n1 [Compound 224]
- Number of cells having neurites with a length at least two times the diameter of each cell/total number of cells ([1]; 0.03 mM): 4.6 ± 1.7%
- Number of cells having neurites with a length at least two times the diameter of each cell/total number of cells ([1]; 0.1 mM): 5.5 ± 1.5%
- Number of cells in which neurites appeared/total number of cells ([2]; 24 hours, 0.02 mM): 6/50
- Number of cells in which neurites appeared/total number of cells ([2]; 48 hours, 0.02 mM): 3/50

SMILES: CN(C(=O)c1ccc(F)cc1)c1ccnc(N2CCC(c3ccccc3)CC2)n1 [Compound 242]
- Number of cells having neurites with a length at least two times the diameter of each cell/total number of cells ([1]; 0.1 mM): 17.0 ± 2.3%
- Number of cells having neurites with a length at least two times the diameter of each cell/total number of cells ([1]; 0.3 mM): 12.8 ± 6.3%
- Number of cells having neurites with a length at least two times the diameter of each cell/total number of cells ([1]; 1 mM): 9.4 ± 3.9%
- Number of cells in which neurites appeared/total number of cells ([2]; 24 hours, 0.2 mM): 4/50
- Number of cells in which neurites appeared/total number of cells ([2]; 24 hours, 0.4 mM): 6/50
- Number of cells in which neurites appeared/total number of cells ([2]; 48 hours, 0.1 mM): 6/50
- Number of cells in which neurites appeared/total number of cells ([2]; 48 hours, 0.2 mM): 11/50

SMILES: CN(C(=O)c1ccccc1)c1ccnc(N2CCOCC2)n1 [Compound 336]
- Number of cells having neurites with a length at least two times the diameter of each cell/total number of cells ([1]; 0.1 mM): 5.8 ± 2.4%
- Number of cells having neurites with a length at least two times the diameter of each cell/total number of cells ([1]; 0.3 mM): 6.3 ± 2.8%
- Number of cells in which neurites appeared/total number of cells ([2]; 24 hours, 0.2 mM): 3/54
- Number of cells in which neurites appeared/total number of cells ([2]; 48 hours, 0.5 mM): 2/50

SMILES: CN(C(=O)c1ccccc1)c1ccnc(N2CCNCC2)n1 [Compound 344]
- Number of cells having neurites with a length at least two times the diameter of each cell/total number of cells ([1]; 0.01 mM): 3.6 ± 0.7%
- Number of cells having neurites with a length at least two times the diameter of each cell/total number of cells ([1]; 0.03 mM): 4.0 ± 1.7%
- Number of cells having neurites with a length at least two times the diameter of each cell/total number of cells ([1]; 0.1 mM): 4.7 ± 1.8%
- Number of cells having neurites with a length at least two times the diameter of each cell/total number of cells ([1]; 0.3 mM): 4.5 ± 2.1%
- Number of cells in which neurites appeared/total number of cells ([2]; 24 hours, 0.2 mM): 3/51
- Number of cells in which neurites appeared/total number of cells ([2]; 48 hours, 0.5 mM): 2/49

SMILES: CC(=O)N(C)c1cc(C)nc(N2CCCCC2)n1 [Compound 384]
- Number of cells having neurites with a length at least two times the diameter of each cell/total number of cells ([1]; 0.3 mM): 10.4 ± 2.5%
- Number of cells having neurites with a length at least two times the diameter of each cell/total number of cells ([1]; 1 mM): 10.8 ± 7.2%
- Number of cells in which neurites appeared/total number of cells ([2]; 24 hours, 0.4 mM): 8/50
- Number of cells in which neurites appeared/total number of cells ([2]; 48 hours, 0.4 mM): 3/50

SMILES: CC(=O)N(C)c1nc(N2CCC(c3ccccc3)CC2)ncc1C [Compound 416]
- Number of cells having neurites with a length at least two times the diameter of each cell/total number of cells ([1]; 0.1 mM): 13.2 ± 1.3%
- Number of cells having neurites with a length at least two times the diameter of each cell/total number of cells ([1]; 0.3 mM): 10.8 ± 1.5%
- Number of cells in which neurites appeared/total number of cells ([2]; 24 hours, 0.1 mM): 7/50
- Number of cells in which neurites appeared/total number of cells ([2]; 24 hours, 0.4 mM): 11/50
- Number of cells in which neurites appeared/total number of cells ([2]; 48 hours, 0.1 mM): 2/50

SMILES: CN(C(=O)c1ccccc1)c1nc(N2CCC(c3ccccc3)CC2)ncc1F [Compound 432]
- Number of cells having neurites with a length at least two times the diameter of each cell/total number of cells ([1]; 0.1 mM): 2.9 ± 1.0%
- Number of cells having neurites with a length at least two times the diameter of each cell/total number of cells ([1]; 0.3 mM): 3.6 ± 1.7%
- Number of cells in which neurites appeared/total number of cells ([2]; 24 hours, 0.02 mM): 7/50
- Number of cells in which neurites appeared/total number of cells ([2]; 24 hours, 0.4 mM): 7/50
- Number of cells in which neurites appeared/total number of cells ([2]; 48 hours, 0.4 mM): 4/50

SMILES: CCOC(=O)c1cnc(N2CCCCC2)nc1CNC [Compound 812]
- Number of cells having neurites with a length at least two times the diameter of each cell/total number of cells ([1]; 0.1 mM): 3.5 ± 0.5%
- Number of cells having neurites with a length at least two times the diameter of each cell/total number of cells ([1]; 0.3 mM): 3.4 ± 0.5%
- Number of cells in which neurites appeared/total number of cells ([2]; 24 hours, 0.5 mM): 9/50
- Number of cells in which neurites appeared/total number of cells ([2]; 24 hours, 1.0 mM): 11/50
- Number of cells in which neurites appeared/total number of cells ([2]; 48 hours, 0.3 mM): 9/50
- Number of cells in which neurites appeared/total number of cells ([2]; 48 hours, 0.5 mM): 5/51

SMILES: CN(C(=O)c1ccccc1)c1ccnc(NC2CCN(C(=O)c3ccccc3)CC2)n1 [Compound 2202]
- Number of cells having neurites with a length at least two times the diameter of each cell/total number of cells ([1]; 0.1 mM): 2.2 ± 2.0%

SMILES: CN(C(=O)c1ccccc1)c1ccnc(N2CCC(OC(=O)c3ccccc3)CC2)n1 [Compound 2226]
- Number of cells having neurites with a length at least two times the diameter of each cell/total number of cells ([1]; 0.03 mM): 6.4 ± 3.3%
- Number of cells having neurites with a length at least two times the diameter of each cell/total number of cells ([1]; 0.1 mM): 15.4 ± 3.9%

SMILES: CN1CCN(C(=O)N(C)c2ccnc(N3CCC(c4ccccc4)CC3)n2)CC1 [Compound 2234]
- Number of cells having neurites with a length at least two times the diameter of each cell/total number of cells ([1]; 0.03 mM): 5.1 ± 3.2%
- Number of cells having neurites with a length at least two times the diameter of each cell/total number of cells ([1]; 0.1 mM): 5.7 ± 2.8%

SMILES: CCCCNC1CCN(c2nccc(N(C)C(=O)c3ccccc3)n2)CC1 [Compound 2260]
- Number of cells having neurites with a length at least two times the diameter of each cell/total number of cells ([1]; 0.03 mM): 2.2 ± 0.3%
- Number of cells having neurites with a length at least two times the diameter of each cell/total number of cells ([1]; 0.1 mM): 2.3 ± 0.5%

SMILES: CN(C(=O)COc1ccccc1)c1ccnc(N2CCC(c3ccccc3)CC2)n1 [Compound 2286]
- Number of cells having neurites with a length at least two times the diameter of each cell/total number of cells ([1]; 0.03 mM): 9.7 ± 5.4%
- Number of cells having neurites with a length at least two times the diameter of each cell/total number of cells ([1]; 0.1 mM): 8.4 ± 0.8%

SMILES: CN(C)C(=O)N(C)c1ccnc(N2CCC(c3ccccc3)CC2)n1 [Compound 2294]
- Number of cells having neurites with a length at least two times the diameter of each cell/total number of cells ([1]; 0.03 mM): 3.7 ± 0.9%
- Number of cells having neurites with a length at least two times the diameter of each cell/total number of cells ([1]; 0.1 mM): 8.1 ± 1.6%

SMILES: CN1C(=O)Cc2cnc(N3CCN(C(c4ccccc4)c4ccccc4)CC3)nc21 [Compound 3128, 2-(4-diphenylmethylpiperazino)-5,6-dihydro-7-methyl-6-oxo(7H)pyrrolo2,3-d]pyrimidine hydrochloride]
- Number of cells having neurites with a length at least two times the diameter of each cell/total number of cells ([1]; 0.1 mM): 14.2 ± 1.9%
- Number of cells having neurites with a length at least two times the diameter of each cell/total number of cells ([1]; 0.3 mM): 11.9 ± 4.5%

SMILES: CN1C(=O)Cc2cnc(N3CCN(C(c4ccccc4)c4ccc(F)cc4)CC3)nc21 (stereo not shown) [Compound 3136]
- Number of cells having neurites with a length at least two times the diameter of each cell/total number of cells ([1]; 0.01 mM): 5.8 ± 0.6%
- Number of cells having neurites with a length at least two times the diameter of each cell/total number of cells ([1]; 0.03 mM): 13.8 ± 4.8%
- Number of cells having neurites with a length at least two times the diameter of each cell/total number of cells ([1]; 0.1 mM): 20.9 ± 5.3%
- Number of cells having neurites with a length at least two times the diameter of each cell/total number of cells ([1]; 0.3 mM): 7.1 ± 3.0%

SMILES: Cc1ccc(C(c2ccccc2)N2CCN(c3ncc4c(n3)N(C)C(=O)C4)CC2)cc1.Cc1ccc(S(=O)(=O)O)cc1 (stereo not drawn) [Compound 3152, 2-(4-(α(4-methylphenyl)benzyl)piperazino)-5,6-dihydro-7-methyl-6-oxo(7H)pyrrolo[2,3-d)pyrimidine p-toluenesulfonate]
- Number of cells having neurites with a length at least two times the diameter of each cell/total number of cells ([1]; 0.03 mM): 11.4 ± 3.1%
- Number of cells having neurites with a length at least two times the diameter of each cell/total number of cells ([1]; 0.1 mM): 6.8 ± 4.2%

SMILES: CN1C(=O)Cc2cnc(N3CCN(C4c5ccccc5-c5ccccc54)CC3)nc21 [Compound 3200]
- Number of cells having neurites with a length at least two times the diameter of each cell/total number of cells ([1]; 0.01 mM): 2.7 ± 0.7%

SMILES: CN1C(=O)Cc2cnc(N3CCN(C(c4ccccc4)(c4ccccc4)c4ccccc4)CC3)nc21 [Compound 3300]
- Number of cells having neurites with a length at least two times the diameter of each cell/total number of cells ([1]; 0.3 mM): 6.1 ± 1.2%
- Number of cells having neurites with a length at least two times the diameter of each cell/total number of cells ([1]; 1 mM): 7.8 ± 1.0%

SMILES: CN1C(=O)Cc2cnc(N3CCN(S(C)(=O)=O)CC3)nc21 [Compound 3404]
- Number of cells having neurites with a length at least two times the diameter of each cell/total number of cells ([1]; 0.03 mM): 3.3 ± 1.3%
- Number of cells having neurites with a length at least two times the diameter of each cell/total number of cells ([1]; 0.3 mM): 3.4 ± 1.4%
